According to patent US20220330548A1, “Peptides with Phytosanitary Activities” (Universita' Degli Studi Di Padova, priority 2021, published 2022):
[ ]: non-standard residue; d: D form. The star is where a group is joined. Octanoyl = CCCCCCCC(=O)*; Aib = CC(C)(N)C(=O)O

Experiments:
Plasmopara viticola = assay: Infection by P. viticola on vine leaf discs; assay type: in vivo, Plasmopara viticola on vine leaf discs (cv. Glera); details: peptide 50 μM, 12 days after inoculation
Method: Infection tests were performed on vine leaf disks (cv. Glera) of 1 cm in diameter. Twenty leaf discs obtained from randomly collected leaves from different plants were placed with the lower side facing upwards on moistened sterile paper placed in Petri dishes (15 cm diameter). Approximately 0.1 mL of each aqueous solution containing the peptide (50 μM) was distributed on each leaf disc. Aqueous suspensions of P. viticola sporangia, collected from infected vine plants, were diluted to obtain 3-5×10^5 sporangia/mL and distributed on the leaf discs. The plates containing the leaf discs were incubated in the dark at room temperature (22-23° C.). The incidence was calculated 12 days after inoculation as the ratio of the number of sporulating discs to the total number of discs inoculated. Control plates contained water-treated leaf discs. Two or three plates were used for each treatment. The data obtained were statistically analysed by applying the Anova and Bonferroni-Holmes one-way test.

Botrytis cinerea = assay type: cell-based, Botrytis cinerea (strain PM10)
Fusarium graminearum [1] = tested on: Fusarium graminearum; design: species or system Fusarium graminearum on ears of wheat; details: in vivo
Pyricularia oryzae [2] = assay type: cell-based
Pyricularia oryzae [3] = tested on: Pyricularia oryzae; design: species or system Pyricularia oryzae strain IT10 on barley leaves; details: in vivo
Fusarium graminearum [4] = assay type: cell-based
Pyricularia oryzae [5] = assay type: cell-based, Pyricularia oryzae (strain IT10)
Fusarium graminearum [6] = assay type: cell-based, Fusarium graminearum (strain 8/1)

“1-octanoyl-Aib-Gly-Leu-Aib-Gly-Gly-Leu-Aib-Lys(HCl)-Ile-Leu-NH2 (Octanoyl-[Aib]GL[Aib]GGL[Aib]KIL-NH2; also: Lys9 as HCl salt) [SEQ. ID. No. 6]” was tested. Which “incidence of Plasmopara viticola infection on vine leaf discs” value (Plasmopara viticola) did it give?
The value was “significantly decreases the P. viticola infection”.

Which “decrease of growth of Botrytis cinerea compared to the untreated control” value (Botrytis cinerea) does the source give for “1-octanoyl-Aib-Gly-Leu-Aib-Gly-Gly-Leu-Aib-Lys(HCl)-Ile-Lol [SEQ. ID. No. 5]” here?
Its value is “at least 95%”.

And the “incidence of Plasmopara viticola infection on vine leaf discs” value (Plasmopara viticola)?
Its value is “significantly decreases the P. viticola infection”.

Which results are given for “1-octanoyl-Aib-Lys(HCl)-Leu-Aib-Lys(HCl)-Gly-Leu-Aib-Lys(HCl)-Ile-Lol [SEQ. ID. No. 1]”?
decrease of infection (infected spikelets) in treated ears compared to untreated control ears (Fusarium graminearum [1]): at least 95%; further decrease of infection compared with treatment with PEP4 and PEP4-rink (Fusarium graminearum [1]): 10-30%; protection of the ear of wheat against infection caused by Fusarium graminearum (Fusarium graminearum [1]): protects the ear of wheat against infection caused by Fusarium graminearum; protection of the ear of wheat compared with the known peptide PEP4 (Fusarium graminearum [1]): greater; microscopic observation of Pyricularia oryzae spores after treatment (Pyricularia oryzae [2]): germination is inhibited and the cytoplasm is agglutinated; viability of Pyricularia oryzae spores (autofluorescence of agglutinated cytoplasm) (Pyricularia oryzae [2]): the cells are no longer viable; decrease of infected (lesion) area of barley leaves compared to control leaves (Pyricularia oryzae [3]): at least 95%; microscopic observation of Fusarium graminearum after treatment (Fusarium graminearum [4]): germination is inhibited and the cytoplasm is agglutinated

How did the “decrease of growth of Pyricularia oryzae compared to the untreated control” value (Pyricularia oryzae [5]) turn out when “1-octanoyl-Leu-Aib-Lys(HCl)-Ile-Leu-NH2 [SEQ. ID. No. 10]” was run?
The value was “at least 95%”.

What about the “decrease of growth of Fusarium graminearum compared to the untreated control” value (Fusarium graminearum [6]) of the same substance?
The value was “at least 95%”.

What about the “decrease of growth of Botrytis cinerea compared to the untreated control” value (Botrytis cinerea) of the same substance?
The value was “at least 95%”.
